Measurements published in patent USRE41209E1, “Platinum complexes” (Genzyme Corporation, priority 1996, dated 2010).
Where two headings read alike, the source gives them in different places.

Assays:
41M = assay: Inhibition of cell proliferation, human cancer cell lines in culture (41M); assay type: cell-based; details: read-out: concentration necessary to achieve a 50% decrease in cell proliferation
A2780R = assay: Inhibition of cell proliferation, human cancer cell lines in culture (A2780R); assay type: cell-based
Method: (§1) The complexes of the invention were tested against human cancer cell lines grown in cell culture according to established testing procedures (described by Kelland et al, Cancer Research 53, 2581-2586, June 1993). […] The results are given in concentrations (μM) necessary to achieve a 50% decrease in cell proliferation, with resistance factors in brackets for the cisplatin-resistant cell lines.

A2780 = assay: Inhibition of cell proliferation, human cancer cell lines in culture (A2780); assay type: cell-based
41MR = assay: Inhibition of cell proliferation, human cancer cell lines in culture (41MR); assay type: cell-based
Method: as §1

SKOV3 = assay: Inhibition of cell proliferation, human cancer cell lines in culture (SKOV3); assay type: cell-based
Method: as §1

CH1R = assay: Inhibition of cell proliferation, human cancer cell lines in culture (CH1R); assay type: cell-based
Method: as §1

HX62 = assay: Inhibition of cell proliferation, human cancer cell lines in culture (HX62); assay type: cell-based
Method: as §1

CH1 = assay: Inhibition of cell proliferation, human cancer cell lines in culture (CH1); assay type: cell-based
ADJ/PC6 = ADJ/PC6 tumour mass reduction in Balb C mice; assay type: in vivo
CH1 xenograft = CH1 xenograft antitumour activity; assay type: in vivo; details: for antitumour effect and tumour regrowth in the CH1 xenograft: derived from cell line sensitive to cisplatin
Text: It has been reported by Tobe et al (Wadley Medical Bulletin 7, 1, 114-135) that steric effects of bulky substituents close to the platinum atom have a profound effect upon the rate of substitution reactions there. At that time no systematic study of the way in which variation of the substituent on the primary amine affects the rate and extend of bonding of the Pt complex to DNA had been undertaken.

[1] = mouse, in vivo, po
[2] = inherently cisplatin sensitive line
[3] = A2780R, bred to be resistant to cisplatin; read-out: concentration necessary to achieve a 50% decrease in cell proliferation
[4] = A2780; read-out: concentration necessary to achieve a 50% decrease in cell proliferation
[5] = 41MR, bred to be resistant to cisplatin; read-out: concentration necessary to achieve a 50% decrease in cell proliferation
[6] = SKOV3, inherently resistant to cisplatin; read-out: concentration necessary to achieve a 50% decrease in cell proliferation
[7] = SKOV3 IC50 divided by the IC50 for the 41M line
[8] = CH1R, bred to be resistant to cisplatin; read-out: concentration necessary to achieve a 50% decrease in cell proliferation
[9] = HX62, inherently resistant to cisplatin; read-out: concentration necessary to achieve a 50% decrease in cell proliferation
[10] = HX62 IC50 divided by the IC50 for the 41M line
[11] = CH1; read-out: concentration necessary to achieve a 50% decrease in cell proliferation
[12] = Homo sapiens; read-out: concentration necessary to achieve a 50% decrease in cell proliferation
[13] = Homo sapiens, read-out: concentration necessary to achieve a 50% decrease in cell proliferation

Structure (SMILES)	IC50 (41M; [2]) [µM]	resistance factor (A2780R; A2780R versus A2780)	IC50 (A2780R; [3]) [µM]	IC50 (A2780; [4]) [µM]	resistance factor (41MR; 41MR versus 41M)	IC50 (41MR; [5]) [µM]	IC50 (SKOV3; [6]) [µM]	resistance factor (SKOV3; [7])	resistance factor (CH1R; CH1R versus CH1)	IC50 (CH1R; [8]) [µM]	IC50 (HX62; [9]) [µM]	resistance factor (HX62; [10])	IC50 (CH1; [11]) [µM]	other results
N.N.O=C([O-])C1(C(=O)[O-])CCC1.[Pt+2] [Carboplatin, reference compound]	3.3	(14)	37.4	2.6	(2.7)	8.8	37.7	(11)	(4.6)	6	85	(26)	1.3	–
N.N.[Cl][Pt][Cl] [Cisplatin, [PtCl2 (NH3)2], reference compound]	0.41	(22)	7.8	0.35	(4.6)	1.9	4.3	(10.5)	(3.7)	0.44	15.5	(37.8)	0.12	ED90; dose required to reduce tumour mass by 90% (ADJ/PC6; ADJ/PC6, Daily × 5 (i.p.)): 0.2 mg/kg; ED90; dose required to reduce tumour mass by 90% (ADJ/PC6; ADJ/PC6, Single dose (i.p.)): 1.6 mg/kg; ED90; dose required to reduce tumour mass by 90% (ADJ/PC6; ADJ/PC6, Single dose (p.o.)): 24 mg/kg; antitumour effect and tumour regrowth in the CH1 xenograft (CH1 xenograft): significant activity at the maximum tolerated dose, however the tumour does grow back
Cc1cccc[n+]1[Pt-2]([NH3+])([Cl])[Cl] [Example 1, (SP-4-3)-amminedichloro(2-methylpyridine) platinum(II)]	4.1	(3.4)	4.4	1.28	(1.2)	5	17.5	(4.3)	(1.9)	3.7	40	(9.8)	1.9	ED90; dose required to reduce tumour mass by 90% (ADJ/PC6; ADJ/PC6, Daily × 5 (i.p.)): 0.8 mg/kg; ED90; dose required to reduce tumour mass by 90% (ADJ/PC6; ADJ/PC6, Single dose (i.p.)): 3 mg/kg; ED90; dose required to reduce tumour mass by 90% (ADJ/PC6; ADJ/PC6, Single dose (p.o.)): 6.2 mg/kg; antitumour effect and tumour regrowth in the CH1 xenograft (CH1 xenograft): exhibits a curative effect, and the tumour does not grow back; potency in the CH1 xenograft compared with cisplatin (CH1 xenograft; greater dose is required than cisplatin): slightly less potency; LD50; dose causing 50% lethality [1]: 560 mg/kg; histological evidence of organ toxicity (mice receiving a LD10 dose): No significant histological evidence of liver, kidney, spleen, gastrointestinal tract, brain or skin toxicity; levels of ALP, ALT, gut disaccharides maltose, sucrose and trehalose, urea and creatinine compared to control mice (treated mice (LD50 dose)): no significant differences
CCc1ccccn1 [Example 2, 2-ethylpyridine]	–	(2.5)	–	–	(1.7)	–	–	(2.9)	(2.6)	–	–	(10)	–	IC50 (41M; Homo sapiens): 3.4 µM; IC50 (A2780R; [12]): 11 µM; IC50 (A2780; Homo sapiens, A2780; read-out: concentration necessary to achieve a 50% decrease in cell proliferation): 4.4 µM; IC50 (41MR; [12]): 5.7 µM; IC50 (SKOV3; Homo sapiens, SK-OV-3; read-out: concentration necessary to achieve a 50% decrease in cell proliferation): 20 µM; IC50 (CH1R; [12]): 3.6 µM; IC50 (HX62; Homo sapiens, HX62; read-out: concentration necessary to achieve a 50% decrease in cell proliferation): 36 µM; IC50 (CH1; Homo sapiens, CH1; read-out: concentration necessary to achieve a 50% decrease in cell proliferation): 1.4 µM
Cc1ccnc(C)c1.N.[Cl][Pt][Cl] [Example 4, (SP-4-3)-amminedichloro(2,4-dimethylpyridine)platinum(II)]	4.25	–	18	6.6	(0.4)	1.9	14	(3)	(2.3)	5.3	4.9	(1)	2.3	–
CC(C)c1ccccn1 [Example 5, 2-isopropylpyridine]	–	(3.6)	–	–	(0.9)	–	–	(3.3)	(1.7)	–	–	(8)	–	IC50 (41M; Homo sapiens): 6.1 µM; IC50 (A2780R; [13]): 14 µM; IC50 (A2780; Homo sapiens, A2780, read-out: concentration necessary to achieve a 50% decrease in cell proliferation): 3.9 µM; IC50 (41MR; [13]): 5.6 µM; IC50 (SKOV3; Homo sapiens, SK-OV-3, read-out: concentration necessary to achieve a 50% decrease in cell proliferation): 20 µM; IC50 (CH1R; [13]): 4.2 µM; IC50 (HX62; Homo sapiens, HX62, read-out: concentration necessary to achieve a 50% decrease in cell proliferation): 49 µM; IC50 (CH1; Homo sapiens, CH1, read-out: concentration necessary to achieve a 50% decrease in cell proliferation): 2.4 µM
Cc1cc[n+]([Pt-2]([NH3+])([OH])([OH])([Cl])[Cl])c(C)c1 [Example 7, (OC-6-43)-amminedichlorodihydroxo(2,4-dimethylpyridine)platinum(IV)]	8	(2.1)	30	14	(2.2)	17.5	47	(5.9)	(2.5)	8.9	72	(9)	3.1	–
